Measurements reported in PubChem BioAssay AID248 (DTP/NCI, 2004).
Where “and” joins values, the source holds several entries; their conditions need not be identical. Identical values can stand only once. Toxic doses and inconclusive results are not listed. No stated cut-off is given here; in the data, active means T/C of 150% or more; inactive means T/C below 125%.

Test system: L1210 leukemia ip in BDF1 mice, survival T/C
Experiment: NCI In Vivo Anticancer Drug Screen. Data for tumor model L1210 Leukemia (intraperitoneal) in B6D2F1 (BDF1) mice
Settings: endpoint: mean survival time, higher = longer survival
Outline: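 Transplantable tumor model; survival measured in treated vs vehicle control mice. Value = treated/control.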

[1] = dose: 50.0 mg/kg/injection, schedule: Q01DX009 (ip), vehicle: saline
[2] = dose: 100.0 mg/kg/injection, schedule: Q01DX009 (ip), vehicle: saline
[3] = dose: 200.0 mg/kg/injection, schedule: Q01DX009 (ip), vehicle: saline
[4] = dose: 200.0 mg/kg/injection, schedule: Q04DX003 (ip), vehicle: Klucel (hydroxypropylcellulose) (HPC)
[5] = dose: 100.0 mg/kg/injection, schedule: Q04DX003 (ip), vehicle: Klucel (hydroxypropylcellulose) (HPC)
[6] = dose: 400.0 mg/kg/injection, schedule: Q04DX003 (ip), vehicle: Klucel (hydroxypropylcellulose) (HPC)
[7] = dose: 50.0 mg/kg/injection, schedule: Q01DX009 (ip), vehicle: saline with Tween-80
[8] = dose: 100.0 mg/kg/injection, schedule: Q01DX001 (ip), vehicle: saline with Tween-80
[9] = dose: 100.0 mg/kg/injection, schedule: Q01DX009 (ip), vehicle: saline with Tween-80
[10] = dose: 100.0 mg/kg/injection, schedule: Q04DX003 (ip), vehicle: saline with Tween-80
[11] = dose: 200.0 mg/kg/injection, schedule: Q01DX001 (ip), vehicle: saline with Tween-80
[12] = dose: 200.0 mg/kg/injection, schedule: Q01DX009 (ip), vehicle: saline with Tween-80
[13] = dose: 200.0 mg/kg/injection, schedule: Q04DX003 (ip), vehicle: saline with Tween-80
[14] = dose: 50.0 mg/kg/injection, schedule: Q01DX001 (ip), vehicle: carboxymethylcellulose (CMC)
[15] = dose: 100.0 mg/kg/injection, schedule: Q01DX001 (ip), vehicle: carboxymethylcellulose (CMC)
[16] = dose: 100.0 mg/kg/injection, schedule: Q01DX009 (ip), vehicle: Klucel (hydroxypropylcellulose) (HPC)
[17] = dose: 200.0 mg/kg/injection, schedule: Q01DX009 (ip), vehicle: Klucel (hydroxypropylcellulose) (HPC)
[18] = dose: 400.0 mg/kg/injection, schedule: Q01DX009 (ip), vehicle: Klucel (hydroxypropylcellulose) (HPC)
[19] = dose: 100.0 mg/kg/injection, schedule: Q01DX001 (ip), vehicle: saline
[20] = dose: 200.0 mg/kg/injection, schedule: Q01DX001 (ip), vehicle: saline

Measured: T/C

NC(=O)OCCCc1ccccc1
inactive: dose: 12.5 mg/kg/injection, schedule: Q01DX009 (ip), vehicle: saline 112 % of control | dose: 25.0 mg/kg/injection, schedule: Q01DX009 (ip), vehicle: saline 105 % of control | dose: 25.0 mg/kg/injection, schedule: Q04DX003 (ip), vehicle: Klucel (hydroxypropylcellulose) (HPC) 101 % of control | [1] 103 % of control | dose: 50.0 mg/kg/injection, schedule: Q04DX003 (ip), vehicle: Klucel (hydroxypropylcellulose) (HPC) 104 % of control | [2] 112 % of control | [3] 105 % of control | [4] 98 % of control

N#Cc1ccc(N2CCCc3ccccc32)c([N+](=O)[O-])c1
inactive: [5] 107 % of control | [4] 92 % of control | [6] 91 % of control

Nc1nc(=S)[nH][nH]1
inactive: [7] 105 % of control | [8] 104 % of control | [9] 117 % of control | [10] 104 % of control | [11] 105 % of control | [12] 101 % of control | [13] 98 % of control

CN1CCN(C(=O)Nc2cccc(F)c2)CC1
inactive: dose: 25.0 mg/kg/injection, schedule: Q01DX009 (ip), vehicle: saline with Tween-80 97 % of control | [7] 101 % of control | [9] 94 % of control and 96 % of control

O=C1C(=O)c2ccccc2C(O)=C1c1ccc(Br)cc1
inactive: [14] 120 % of control | [15] 103 % of control

CCN(CCN)c1cccc(C)c1
inactive: dose: 100.0 mg/kg/injection, schedule: Q04DX003 (ip), vehicle: saline sonified 92 % of control

OCC1C2CCC(O2)C1CO (configuration not stated)
inactive: dose: 0.75 mg/kg/injection, schedule: Q04DX002 (ip), vehicle: saline 96 % of control | dose: 1.5 mg/kg/injection, schedule: Q04DX002 (ip), vehicle: saline 93 % of control and 110 % of control | dose: 3.0 mg/kg/injection, schedule: Q04DX002 (ip), vehicle: saline 96 % of control | dose: 6.0 mg/kg/injection, schedule: Q04DX002 (ip), vehicle: saline 101 % of control and 115 % of control | dose: 12.5 mg/kg/injection, schedule: Q04DX002 (ip), vehicle: saline 101 % of control | dose: 25.0 mg/kg/injection, schedule: Q04DX002 (ip), vehicle: saline 108 % of control | dose: 50.0 mg/kg/injection, schedule: Q04DX002 (ip), vehicle: saline 111 % of control | dose: 100.0 mg/kg/injection, schedule: Q04DX002 (ip), vehicle: saline 105 % of control

CCCCCCCCCCCCNC(=O)Nc1ccc(CC)cc1
inactive: [16] 87 % of control | [5] 97 % of control | [17] 94 % of control | [4] 96 % of control | [18] 93 % of control | [6] 101 % of control

CCCCCC#CC(C)OC(=O)Nc1cccc2ccccc12 (configuration not stated)
inactive: [8] 96 % of control | [11] 98 % of control | dose: 400.0 mg/kg/injection, schedule: Q01DX001 (ip), vehicle: saline with Tween-80 86 % of control

Clc1ncnc2c1nnn2C1CCCC1
inactive: [19] 101 % of control | [20] 104 % of control

CN(C)P1(=O)OCCN1N (configuration not stated)
inactive: [1] 105 % of control | [2] 117 % of control | dose: 100.0 mg/kg/injection, schedule: Q04DX003 (ip), vehicle: saline 104 % of control | [3] 103 % of control | dose: 200.0 mg/kg/injection, schedule: Q04DX003 (ip), vehicle: saline 96 % of control

CCC1(C)CC1(Cl)Cl (configuration not stated)
inactive: dose: 100.0 mg/kg/injection, schedule: Q04DX003 (ip), vehicle: other 105 % of control | dose: 200.0 mg/kg/injection, schedule: Q04DX003 (ip), vehicle: other 102 % of control | dose: 400.0 mg/kg/injection, schedule: Q04DX003 (ip), vehicle: other 100 % of control

O=C(OC1CC2CC1C1CCCC21)c1ccc([N+](=O)[O-])cc1 (configuration not stated)
inactive: [14] 90 % of control | [15] 87 % of control | [16] 104 % of control | dose: 200.0 mg/kg/injection, schedule: Q01DX001 (ip), vehicle: carboxymethylcellulose (CMC) 92 % of control | [17] 100 % of control | dose: 400.0 mg/kg/injection, schedule: Q01DX001 (ip), vehicle: carboxymethylcellulose (CMC) 95 % of control | [18] 97 % of control

Nc1ccn(C2OC(CO)C(O)C2O)c(=NCC(=O)O)n1 (configuration not stated)
inactive: dose: 100.0 mg/kg/injection, schedule: Q01DX005 (ip), vehicle: saline 120 % of control | dose: 200.0 mg/kg/injection, schedule: Q01DX005 (ip), vehicle: saline 122 % of control

CCCc1cc2c(cc1CS(=O)(=O)c1ccccc1)OCO2
inactive: dose: 12.5 mg/kg/injection, schedule: Q01DX009 (ip), vehicle: Klucel (hydroxypropylcellulose) (HPC) 97 % of control | dose: 25.0 mg/kg/injection, schedule: Q01DX009 (ip), vehicle: Klucel (hydroxypropylcellulose) (HPC) 112 % of control | dose: 50.0 mg/kg/injection, schedule: Q01DX009 (ip), vehicle: Klucel (hydroxypropylcellulose) (HPC) 108 % of control | [16] 101 % of control and 102 % of control | [5] 94 % of control | [17] 102 % of control | [4] 97 % of control | [6] 101 % of control

N#Cc1ncc(-c2ccccc2)nc1Cl
inactive: [7] 94 % of control | [9] 96 % of control | [10] 97 % of control | [12] 92 % of control | [13] 95 % of control

O=C(Nc1ccc(/C=C/c2ccc(NC(=O)Nc3cccc(C4=NCCN4)c3)cc2)cc1)Nc1cccc(C2=NCCN2)c1
inactive: dose: 3.75 mg/kg/injection, schedule: Q01DX Z (ip), vehicle: carboxymethylcellulose (CMC) 93 % of control | dose: 7.5 mg/kg/injection, schedule: Q01DX Z (ip), vehicle: carboxymethylcellulose (CMC) 98 % of control | dose: 15.0 mg/kg/injection, schedule: Q01DX Z (ip), vehicle: carboxymethylcellulose (CMC) 96 % of control | dose: 50.0 mg/kg/injection, schedule: Q01DX Z (ip), vehicle: carboxymethylcellulose (CMC) 103 % of control | dose: 100.0 mg/kg/injection, schedule: Q01DX Z (ip), vehicle: carboxymethylcellulose (CMC) 102 % of control | dose: 200.0 mg/kg/injection, schedule: Q01DX Z (ip), vehicle: carboxymethylcellulose (CMC) 97 % of control

O=C1C2(c3ccccc3)C(c3ccccc3)=C(c3ccccc3)C1(c1ccccc1)C1CC=CC12 (configuration not stated)
inactive: [9] 98 % of control | [10] 96 % of control | [12] 100 % of control | [13] 104 % of control | dose: 400.0 mg/kg/injection, schedule: Q04DX003 (ip), vehicle: saline with Tween-80 96 % of control

CCC(C)C(C)C(C)=O (configuration not stated)
inactive: dose: 50.0 mg/kg/injection, schedule: Q01DX001 (ip), vehicle: saline 110 % of control | [19] 101 % of control | [20] 93 % of control
